Reference: patent US6068987A, “Histone deacetylase as target for antiprotozoal agents” (Merck & Co., Inc., priority 1999, dated 2000)

Legend:
[1] = tested on: P. falciparum histones; test: Histone acetylation state in P. falciparum (14C acetate labeling, AUT gel); format: cell-based, Plasmodium falciparum; details: infected red blood cells, 14C sodium acetate, 2 hours, FIG. 2
Protocol: Acid urea triton (AUT) polyacrylarnide gels were performed according to the methods of Alfageme et al (1974) J. Biol. Chem. 249, 3729, with modifications as described in Lennox and Cohen (Methods in Enzymology, 170, 532-549). For optimal resolution of HeLa cell and Plasmodium falciparum histones the separation gel contained 7.5M urea, 12% acrylamide, 0.38% Triton® X 100, 0.08% bis acrylamide, and 0.87M acetic acid. The loading gels contained 7.5M urea, 0.37% Triton® X 100, 6% acrylamide, 0.04% bis acrylamide and 0.87M acetic acid. Gels were run in 1M acetic acid. Gels were pre-electrophoresed at 350V for 1 hour and run at 450 V for 3.5 hours. Gels were either stained with Coomassie Brilliant Blue R in 7% acetic acid, 20% methanol and then destained in 7% acetic acid and 20% methanol, or treated with Enlightening (from New England Nuclear), dried and radiolabel detected by fluorography.
Approximately 1×10^9 P. falciparum infected red blood cells (about 60% parasitized) were resuspended in 10 ml of RPMI 1640 containing various concentrations of test compounds and 250 μCi^14 C sodium acetate and incubated at 37° C. for 2 hours. The cells were then washed 3 time with PBS and histones were prepared as described below.
Histones were prepared according to the method of Cary et al (1994) Parasitology Research, 80, 255-258. […]

[2] = tested on: HeLa cell histones; test: Histone acetylation state in HeLa cells (AUT gel electrophoresis); format: cell-based, human; details: HeLa cells treated 4 hrs, FIG. 1, relative to untreated cells
Protocol: About 2×10^7 HeLa cells growing at 37 C were treated with various compounds in the standard tissue culture medium (MEM containing 10% fetal calf serum) for 4 hrs. Cells were then removed from the flask by scraping in PBS in a total volume of about 10 mls. The cells were washed twice in PBS and resuspended in about 3 mls lysis buffer (Lysis buffer; 0.45% Nonidet® P-40, 10 mM tris, 10 mM NaCl, 5 mM MgCl, 0.1 mM EGTA, 0.1 mM PMSF). The suspension was mixed by vortexing for 10 seconds, incubated on ice for 15 minutes and nuclei were pelleted by centrifugation through a 1 ml cushion of 30% sucrose in lysis buffer at 1300×g for 10 minutes. The supernatant was discarded and the nuclei were then resuspended in 1.0 ml water. H2 SO4 was added to a final concentration of 0.4M and the nuclear suspension was incubated on ice for 30 min. and then pelleted by centrifugation at 13,000×g for 10 miunutes. […]
Acid urea triton (AUT) polyacrylarnide gels were performed according to the methods of Alfageme et al (1974) J. Biol. Chem. 249, 3729, with modifications as described in Lennox and Cohen (Methods in Enzymology, 170, 532-549). […] Gels were either stained with Coomassie Brilliant Blue R in 7% acetic acid, 20% methanol and then destained in 7% acetic acid and 20% methanol, or treated with Enlightening (from New England Nuclear), dried and radiolabel detected by fluorography.

[3] = tested on: histone deacetylase (chicken liver extracts); test: Histone deacetylase inhibition assay (Assay 1), chicken liver extract; format: biochemical
Protocol: (§1) The standard assay contained in a total volume of 40 μL: 400 nmol HEPES-sodium, pH 7.4, 100 pmol of the substrate [AcGly-Ala-Lys(ε-^14 C-Ac)-Arg-His-Arg-Lys(ε-^14 C-Ac)-ValNH2 ] (see Kervabon et al (1979) FEBS Letters 106: 93-96) having a specific activity of approx. 114 mCi/mmol, and a source of histone deacetylase (HDAase) activity. The amount of HDAase added was chosen such that ≤20% of the substrate was consumed during the assay. The reaction was initiated by enzyme addition and allowed to proceed for 60 min at 41°. At 60 min, the reaction was terminated by the addition of a 50% slurry of Amberlite AG 50 W×4 cation exchange resin, sodium form (200-400 mesh) in 25 mM sodium acetate buffer, pH 4.2 (200 μL). The resin binds both remaining substrate and the (partially) deacetylated peptidyl products. The quenched reaction was then incubated for at least 30 min at 25° with occassional mixing, diluted with additional 25 mM sodium acetate buffer, pH 4.2 (760 μL; final volume 1000 μL), incubated for a minimum of an additional 30 min at 25° with occassional mixing, and then centrifuged at 10,000×g for 1 min. An aliquot of the supernatant (800 μL) containing the enzymatically released ^14 C-acetate was removed, mixed with Aquasol 2 liquid scintillation counter (LSC) cocktail (10 mL), and counted in a Beckman model LS-5801 LSC. […]

[4] = tested on: Eimeria HDAase (histone deacetylase); test: Histone deacetylase inhibition assay (Assay 1), E. tenella extract; format: biochemical, Eimeria tenella
Protocol: as §1

[5] = tested on: P. falciparum; test: In vitro antiparasitic activity against P. falciparum; format: cell-based, Plasmodium falciparum
Text: ^(2) Generally following the procedure described in Desjardins et al, "Quantitative Assessment of Antimalarial Activity In Vitro by a Semiautomated Microdilution Technique" Antimicrobial Agents and Chemotherapy, 1979, 16:710-718.

[6] = tested on: E. tenella; test: In vitro antiparasitic activity against E. tenella; format: cell-based, Eimeria tenella
Text: ^(1) Generally following the procedure described in Crane, Schmatz, Stevens, Habbersett and Murray. Eimeria tenella: in vitro development in irradiated bovine kidney cells.(1984) Parasitology 88: 521-530.

[7] = tested on: histone deacetylase (chicken liver S100 lysate); test: Competitive binding assay with 3H-N-desmethoxyapicidin, chick liver S100 lysate; details: for IC50: displacement of 3H-N-desmethoxyapicidin, chick liver S100
Protocol: Chick Liver. Livers from 3-5 three week old chickens are collected, rinsed in ice cold phosphate buffered saline (pH 7.4), diced into small pieces and rinsed again 3-4 times with ice cold 50 mM N-2-hydroxyethylpiperazine-N'-2-ethanesulfonic acid (HEPES) (pH 7.4) containing 0.1 mM phenylmethanesulfonyl fluoride (PMSF). The tissue is then resuspended in HEPES buffer, homogenized in a polytron homogenizer and centrifuged at 3000×g for 10 min. The supernatant is then subjected to an additional 100,000 g centifugation for 1 hour. The pellet and the floating layer of lipid are discarded and the supernatant, referred to as the chick liver S100 fraction, is retained for binding assays. After estimating the protein concentration, the supernatant (S100) is aliquoted and frozen at -80° C.
(§2) Each assay tube contains a final volume of 1 ml with 1.3 ng/ml of ^3 H-N-desmethoxyapicidin, 150-200 μg of the appropriate S100 supernatant and concentrations of potential HDA inhibitors from 0.001-10 μg/ml.
(§3) (i) labeled substrate. 2-^3 H-N-desmethoxyapicidin (18.69 mCi/mg) is diluted 1:100 in ethanol, and 2 μl added per 1 ml of 50 mM HEPES pH 7.4 with 0.05% Triton®-X100 (HEPES/Triton) is added. This provides 1.3 ng 2-^3 H-N-desmethoxyapicidin /ml of assay (54,000 DPM/ml.)
(§4) (ii) potential HDA inhibitors. The stocks of the test compounds are made up to 2 mg/ml dimethylsulfoxide (DMSO). The stock solution is diluted to 1000, 100, 10, 1 and 0.1 μg/ml in ethanol where a full titration is required. Ethanol is used as a negative control, a 100 μg/ml solution of unlabeled N-desmethoxyapicidin is used as a positive control. Six μl of the test compound solution, the positive and negative controls are used for the assay.
(§5) (iii) supernatant from (a). The S100 sample is diluted to a concentration of 3.0 mg protein/ml (chick liver) or 4 mg protein/ml (parasite) in the HEPES/Triton® buffer. Fifty μl is used for the assay.
(§6) Stock solutions of potential HDA inhibitors (ii) are diluted into 50 mM HEPES/Triton® buffer to achieve a final concentration of test compound in the range of […]. ^3 H-N-desmethoxyapicidin is added to a final concentration of 1.3 ng/ml. 50 μl of parasite or chick liver S100 solution (150-200 μg) is added to each tube. The assay mixture is incubated for 1 hr at 25° C. and then aspirated through Whatman GF/B filters impregnated with polyethylenimine (filters prepared in advance by soaking in 2 ml of polyethylenimine per 330 mls water at room temp for 1 hour). Assay tubes were rinsed 3 times with 1-2 mls of HEPES/Triton® and aspirated through the same filter. The filter is then dried and counted in scintillant.

[8] = tested on: histone deacetylase (E. tenella oocyst S100 lysate); test: Competitive binding assay with 3H-N-desmethoxyapicidin, E. tenella S100 lysate; details: for selectivity for E. tenella over chicken liver lysate in binding assay: E. tenella versus host (chicken liver) lysate
Protocol: E. tenella oocysts. Approximately 2×10^9 E. Tenella oocysts are suspended in 5 ml of PBS/0.1 mM PMSF, 4 mls of an equal mixture (vol/vol) of 4.0 and 1.0 mm glass beads is added. The glass bead-oocyst mixture is then shaken for 20 minutes to cause disruption of the oocysts. The efficiency of breakage is checked microscopically. The resulting homogenate is separated from the glass beads and centrifuged at 3000×g for 10 min. The supernatant is then subjected to an additional centrifugation at 100,000 g for 1 hr. The pellet is discarded and the supernatant, referred to as the E. Tenella S100 fraction, is retained for binding assays. After estimating the protein concentration, the supernatant (S100) is aliquoted and frozen at -80° C.
as §2, §3, §4, §5, §6

IC50 [7] [nM] | selectivity for E. tenella over chicken liver lysate in binding assay [8] | Compound | hyperacetylation of P. falciparum histones [1] | hyperacetylation of HeLa cell histones (shift in histone gel profile) [2] | further results
 |  | CC(/C=C/C(=O)NO)=C\[C@@H](C)C(=O)c1ccc(N(C)C)cc1 [trichostatin] | cause hyperacetylation | cause a distinct shift in the histone gel profiles | 
> 1000 | selective | CCC(=O)CCCCC[C@@H]1NC(=O)[C@H]2CCCCN2C(=O)[C@H](C(C)CC)NC(=O)[C@H](c2cn(OC)c3ccccc3c2=O)NC1=O (stereo partly shown) [Compound IIA] |  |  | 
> 1000 | selective | CCC(=O)CCCCC[C@@H]1NC(=O)[C@H]2CCCCN2C(=O)[C@H](C(C)CC)NC(=O)[C@H](c2c[nH]c3ccccc3c2=O)NC1=O (stereo partly shown) [Compound IIB] |  |  | 
 |  | CCC(=O)CCCCC[C@@H]1NC(=O)[C@H]2CCCCN2C(=O)[C@H]([C@@H](C)CC)NC(=O)[C@H](Cc2cn(OC)c3ccccc23)NC1=O [Compound Ia, Apicidin] | cause hyperacetylation | cause a distinct shift in the histone gel profiles | 

Compound | IC50 [7] [nM] | selectivity for E. tenella over chicken liver lysate in binding assay [8] | hyperacetylation of P. falciparum histones [1] | hyperacetylation of HeLa cell histones (shift in histone gel profile) [2] | further results
CC(/C=C/C(=O)O)=C\[C@@H](C)C(=O)c1ccc(N(C)C)cc1 [trichostatic acid] | > 1000 |  |  |  | activity in enzyme inhibition assay (in words), chicken liver extract [3]: inactive; activity in enzyme inhibition assay (in words), E. tenella extract [4]: inactive; activity against P. falciparum (in words) [5]: not active; activity against E. tenella (in words) [6]: not active; activity in binding assay (in words), chicken liver lysate [7]: no activity; activity in binding assay (in words), E. tenella lysate [8]: no activity; IC50 ([8]; displacement of 3H-N-desmethoxyapicidin, E. tenella S100): > 1000 nM
